Test results reported in patent US20070116745A1, “Spermicidal preparations and uses thereof” (CONVE LTD., priority 2004, published 2007).

Legend:
sperm = assay: Modified Sander-Cramer assay (complete sperm immobilization); type: cell-based; conditions: solvent 0.9% NaCl pH 5, 30-second coincubation, n=6
Protocol: The above formulations were used in a series of (i) Sander-Cramer assays (assessment of complete sperm immobilization during a 30-second, compound-sperm coincubation); and (ii) cervical mucous (CM) penetration assays (compound is pre-incubated with a CM microcolumn for 30 minutes, after which sperm are introduced into the system; sperm migration through the mucous is compared to that of control).

[1] = Solubility in assay solvent (Table 1); type: physicochemical; conditions: in 0.9% NaCl pH 5 at initial conc

## nonoxynol-9
sperm; initial conc 1 mg/ml
  HIGHEST SPERMICIDAL DILUTION (1/X): 8.0 ± 0.0 1/X
sperm
  M.E.C. (Minimum Effective Concentration): 0.125 ± 0.000 mg/mL
[1]
  SOLUBILITY: OK - clear
